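Test compounds were applied to cells in 96-well plates for 48 hours at 5 doses. At the GI50, growth is halved.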 The source made the active and inactive calls. Rule as the data show it: active = GI50 up to about 1.1 µM and inactive = higher.
Key:
Experiment in all cases: NCI-60 cell line screen, 48 h
HCT-15 = tested on: HCT-15
HCT-116 = tested on: HCT-116
MDA-MB-435 = tested on: MDA-MB-435
PC-3 = tested on: PC-3
HOP-92 = tested on: HOP-92
BT-549 = tested on: BT-549
SK-MEL-5 = tested on: SK-MEL-5
NCI-H522 = tested on: NCI-H522
MDA-MB-231 = tested on: MDA-MB-231
SK-MEL-28 = tested on: SK-MEL-28
SF-539 = tested on: SF-539
SN12C = tested on: SN12C
UACC-257 = tested on: UACC-257
DU-145 = tested on: DU-145
MOLT-4 = tested on: MOLT-4
SF-295 = tested on: SF-295
OVCAR-4 = tested on: OVCAR-4
A498 = tested on: A498
HOP-62 = tested on: HOP-62
786-0 = tested on: 786-0
HT-29 = tested on: HT-29
LXFL 529 = tested on: LXFL 529
OVCAR-8 = tested on: OVCAR-8
RPMI-8226 = tested on: RPMI-8226
MCF7 = tested on: MCF7
UACC-62 = tested on: UACC-62
NCI-H226 = tested on: NCI-H226
SNB-19 = tested on: SNB-19
SR = tested on: SR
Malme-3M = tested on: Malme-3M
HL-60 = tested on: HL-60
ACHN = tested on: ACHN
DMS-114 = tested on: DMS-114
SNB-78 = tested on: SNB-78
XF498 = tested on: XF498
COLO 205 = tested on: COLO 205
SNB-75 = tested on: SNB-75
CCRF-CEM = tested on: CCRF-CEM
SF-268 = tested on: SF-268
M19-MEL = tested on: M19-MEL
U-251 = tested on: U-251
NCI-H23 = tested on: NCI-H23
Hs-578T = tested on: Hs-578T
K562 = tested on: K562
OVCAR-3 = tested on: OVCAR-3
LOX IMVI = tested on: LOX IMVI
IGROV-1 = tested on: IGROV-1
HOP-18 = tested on: HOP-18
SW-620 = tested on: SW-620
KM-20L2 = tested on: KM-20L2
DLD-1 = tested on: DLD-1
UO-31 = tested on: UO-31
CAKI-1 = tested on: CAKI-1
A549 = tested on: A549
SK-MEL-2 = tested on: SK-MEL-2
NCI/ADR-RES = tested on: NCI/ADR-RES
DMS-273 = tested on: DMS-273
NCI-H460 = tested on: NCI-H460
OVCAR-5 = tested on: OVCAR-5
EKVX = tested on: EKVX
KM12 = tested on: KM12
TK-10 = tested on: TK-10
M14 = tested on: M14
MDA-N = tested on: MDA-N
RXF 393 = tested on: RXF 393
HCC 2998 = tested on: HCC 2998
SK-OV-3 = tested on: SK-OV-3
T47D = tested on: T47D

O=C1/C(=C/c2ccc(Cl)cc2)CCC1CNc1ccc(Cl)cc1 (centres undefined)
GI50 (HCT-15): 2370 nM
GI50 (HCT-116): 4730 nM (inactive)
GI50 (MDA-MB-435): 15100 nM (inactive)
GI50 (PC-3): 10500 nM (inactive)
GI50 (HOP-92): 19300 nM (inactive)
GI50 (BT-549): 24300 nM (inactive)
GI50 (SK-MEL-5): 3330 nM (inactive)
GI50 (NCI-H522): 1800 nM (inactive)
GI50 (MDA-MB-231): 6700 nM (inactive)
GI50 (SK-MEL-28): 15600 nM (inactive)
GI50 (SF-539): 7760 nM (inactive)
GI50 (SN12C): 10200 nM (inactive)
GI50 (UACC-257): 13800 nM (inactive)
GI50 (DU-145): 13500 nM (inactive)
GI50 (MOLT-4): 2290 nM (inactive)
GI50 (SF-295): 6790 nM (inactive)
GI50 (OVCAR-4): 18900 nM (inactive)
GI50 (A498): 14900 nM (inactive)
GI50 (HOP-62): 19900 nM (inactive)
GI50 (786-0): 2260 nM (inactive)
GI50 (HT-29): 3670 nM (inactive)
GI50 (LXFL 529): 711 nM (active)
GI50 (OVCAR-8): 2420 nM (inactive)
GI50 (RPMI-8226): 780 nM (active)
GI50 (MCF7): 1290 nM (inactive)
GI50 (UACC-62): 410 nM (active)
GI50 (NCI-H226): 28400 nM (inactive)
GI50 (SNB-19): 14700 nM (inactive)
GI50 (SR): 2230 nM (inactive)
GI50 (Malme-3M): 18000 nM (inactive)
GI50 (HL-60): 703 nM (active)
GI50 (ACHN): 1570 nM (inactive)
GI50 (DMS-114): 3940 nM (inactive)
GI50 (SNB-78): 23700 nM (inactive)
GI50 (XF498): 12800 nM (inactive)
GI50 (COLO 205): 2460 nM (inactive)
GI50 (SNB-75): 32300 nM (inactive)
GI50 (CCRF-CEM): 828 nM (active)
GI50 (SF-268): 7400 nM (inactive)
GI50 (M19-MEL): 3970 nM (inactive)
GI50 (U-251): 9710 nM (inactive)
GI50 (NCI-H23): 10300 nM (inactive)
GI50 (Hs-578T): 16100 nM (inactive)
GI50 (K562): 249 nM (active)
GI50 (OVCAR-3): 7180 nM (inactive)
GI50 (LOX IMVI): 673 nM (active)
GI50 (IGROV-1): 6120 nM (inactive)
GI50 (HOP-18): 33900 nM (inactive)
GI50 (SW-620): 2030 nM (inactive)
GI50 (KM-20L2): 1460 nM (inactive)
GI50 (DLD-1): 1680 nM (inactive)
GI50 (UO-31): 5350 nM (inactive)
GI50 (CAKI-1): 7550 nM (inactive)
GI50 (A549): 7800 nM (inactive)
GI50 (SK-MEL-2): 29200 nM (inactive)
GI50 (NCI/ADR-RES): 26200 nM (inactive)
GI50 (DMS-273): 1730 nM (inactive)
GI50 (NCI-H460): 7960 nM (inactive)
GI50 (OVCAR-5): 25200 nM (inactive)
GI50 (EKVX): 10700 nM (inactive)
GI50 (KM12): 1290 nM (inactive)
GI50 (TK-10): 5110 nM (inactive)
GI50 (M14): 2370 nM (inactive)
GI50 (MDA-N): 11800 nM (inactive)
GI50 (RXF 393): 11600 nM (inactive)
GI50 (HCC 2998): 6010 nM (inactive)

CC[C@@]1(O)C(=O)OCc2c1cc1n(c2=O)Cc2cc3ccccc3nc2-1 [CAMPTOTHECIN]
GI50 (HCT-15): 152 nM
GI50 (HCT-116): 23 nM (active)
GI50 (MDA-MB-435): 65.8 nM (active)
GI50 (PC-3): 64.4 nM (active)
GI50 (HOP-92): 33.7 nM (active)
GI50 (BT-549): 115 nM (active)
GI50 (SK-MEL-5): 27.2 nM (active)
GI50 (NCI-H522): 22.3 nM (active)
GI50 (MDA-MB-231): 938 nM (active)
GI50 (SK-MEL-28): 228 nM (active)
GI50 (SK-OV-3): 20.2 nM (active)
GI50 (SF-539): 14.5 nM (active)
GI50 (T47D): 22.5 nM (active)
GI50 (SN12C): 14 nM (active)
GI50 (UACC-257): 54.3 nM (active)
GI50 (DU-145): < 10 nM (active)
GI50 (MOLT-4): < 10 nM (active)
GI50 (SF-295): 11.5 nM (active)
GI50 (OVCAR-4): 209 nM (active)
GI50 (A498): 32.2 nM (active)
GI50 (HOP-62): 11.6 nM (active)
GI50 (786-0): < 21.4 nM (active)
GI50 (HT-29): 44.9 nM (active)
GI50 (LXFL 529): 372 nM (active)
GI50 (OVCAR-8): 38.8 nM (active)
GI50 (RPMI-8226): 33.6 nM (active)
GI50 (MCF7): 11.3 nM (active)
GI50 (UACC-62): < 10.6 nM (active)
GI50 (NCI-H226): 17.9 nM (active)
GI50 (SNB-19): 18.2 nM (active)
GI50 (SR): < 10 nM (active)
GI50 (Malme-3M): 174 nM (active)
GI50 (HL-60): 15 nM (active)
GI50 (ACHN): < 11.6 nM (active)
GI50 (DMS-114): 20.6 nM (active)
GI50 (SNB-78): 333 nM (active)
GI50 (XF498): 48.3 nM (active)
GI50 (COLO 205): 286 nM (active)
GI50 (SNB-75): 27.2 nM (active)
GI50 (CCRF-CEM): < 10 nM (active)
GI50 (SF-268): 11.5 nM (active)
GI50 (M19-MEL): 48 nM (active)
GI50 (U-251): 11.1 nM (active)
GI50 (NCI-H23): 19.4 nM (active)
GI50 (Hs-578T): 817 nM (active)
GI50 (K562): 76.4 nM (active)
GI50 (OVCAR-3): 177 nM (active)
GI50 (LOX IMVI): 26.1 nM (active)
GI50 (IGROV-1): 184 nM (active)
GI50 (HOP-18): 122 nM (active)
GI50 (SW-620): 36.6 nM (active)
GI50 (KM-20L2): 77.6 nM (active)
GI50 (DLD-1): 243 nM (active)
GI50 (UO-31): 30.3 nM (active)
GI50 (CAKI-1): 11.8 nM (active)
GI50 (A549): 18.1 nM (active)
GI50 (SK-MEL-2): 298 nM (active)
GI50 (NCI/ADR-RES): 12 nM (active)
GI50 (DMS-273): < 10 nM (active)
GI50 (NCI-H460): 15.8 nM (active)
GI50 (OVCAR-5): 80.9 nM (active)
GI50 (EKVX): 95.1 nM (active)
GI50 (KM12): 159 nM (active)
GI50 (TK-10): 1320 nM (inactive)
GI50 (M14): < 20.6 nM (active)
GI50 (MDA-N): 145 nM (active)
GI50 (RXF 393): 25.6 nM (active)
GI50 (HCC 2998): 159 nM (active)

Reference: ChEMBL document CHEMBL1201862, “PubChem BioAssay data set” (2004)
